Experimental data taken from patent US12628826B2, “Fungicidal composition” (UPL Corporation Limited, priority 2020, dated 2026).

How the values were obtained:
Aphanomyces euteiches = test: Potted plant trial, field pea, 2× rate of Aphanomyces infection (Example 2); conditions: ipconazole 2.5, carboxin 66.7, metalaxyl 6.7 g ai/100 kg, combination 500 ml/100 kg; for Root rot damage: 29 DAP
Method: The control consisted of seed inoculated with Aphanomyces and used water as the seed treatment. The experiment was performed in a controlled environment growth cabinet.
Culture: A 3-day old culture of Aphanomyces euteiches (3 days is when growth has fully encompassed plate) was used for 5 mm inoculation plug source (each plate received one 5 mm plug and four seeds)×4 reps.
Experimental design: 4 reps of each treatment (including controls), with each replication represented by 5 planted seeds for a total of 20 seeds per treatment were performed. All treatments received inoculum. Each seed is placed in a solitary location of a plant tray/flat that has 50 plugs per flat. One flat contained 2 treatments, separated by 10 plugs (2 rows of 5). Treatments 1 and 6 (controls) shared the same flat. The plug flats were placed in a collection tray that was not perforated and all watering was done with tap water from bottom up.
Culture media: 3 day old cultures of A. euteiches were grown on CYP (corn meal agar+yeast extract+phosphate buffer), amended with wheat leaf sections were transferred to 100 ml sterile distilled water in 250 ml flasks and shaken at 100 rpm in the dark at 23° C. for 18 hours for zoospore production.
Inducing Aphanomyces infection: Zoospores were counted and adjusted to a concentration of 1×10^4 spores, and 5 mls of this suspension was pipetted to the base of each plant on 4 DAP and again on 11 DAP (days after planting). This amounted to 50000 zoospores applied to the base of each plant at each inoculation timing. This was called 2× rate. The experiment was conducted in a growth cabinet at 23° C./22° C., 16 hrs light/8 hours dak.-root washing/rating of root darkening took place at 29 DAP which was 18 days after the second inoculation event or 25 days after the first inoculation event.

[1] = system: Mycosphaerella pinodes and Ascochyta pinodella; test: Potted plant trial, pea, stem damage from seed borne root rot / ascochyta blight; conditions: ipconazole 2.5, carboxin 66.7, metalaxyl 6.7 g ai/100 kg, combination 500 ml/100 kg

COCC(=O)N(c1c(C)cccc1C)C(C)C(=O)OC (stereo not shown) [Metalaxyl]
Root rot damage (Aphanomyces euteiches): 0.7 bc 0-5 index/scale
Plant height (cm) (Aphanomyces euteiches): 12.2 cm
Seed emergence (%) (Aphanomyces euteiches): 80.0%

CC1=C(C(=O)Nc2ccccc2)SCCO1 [Carboxin]
Root rot damage (Aphanomyces euteiches): 0.6 bc 0-5 index/scale
Plant height (cm) (Aphanomyces euteiches): 12.9 cm
Seed emergence (%) (Aphanomyces euteiches): 80.0%
Stem damage [1]: 1.8 a 0-3 index/scale

CC(C)C1CCC(Cc2ccc(Cl)cc2)C1(O)Cn1cncn1 (stereo not shown) [Ipconazole]
Root rot damage (Aphanomyces euteiches): 2.2 a 0-5 index/scale
Plant height (cm) (Aphanomyces euteiches): 12.3 cm
Seed emergence (%) (Aphanomyces euteiches): 85.0%
